Laboratory results published in patent publication US8846619B2, “Artificial oxygen transport protein” (The Trustees of the University of Pennsylvania, priority 2009, dated 2014).
Numbering of substitutions follows the chain as printed. Like-named read-outs stand apart in the source and are kept apart here. Ends that are not written are not given here.

Columns and labels:
[1] = Heme binding to the constructs; settings: two-heme variants, read-out: heme binding affinities
[2] = O2 binding kinetics and oxy-ferrous heme formation/stability (stopped-flow; low-temperature CO/O2 ligand exchange); settings: for O2 binding / oxy-ferrous heme formation (in words): reduced (ferrous) heme protein with O2; for stabilization of the oxy-ferrous heme: effect of loop configuration; for oxy-ferrous heme yield: −15° C., exposed to CO, then illuminated to exchange ligand for O2
Experimental: (§1) Predominantly mono-exponential binding kinetics of O2 and CO with the ferrous heme B in Construct 6 were followed spectroscopically in rapid stopped-flow mixing over gas concentrations from 2% to 50% saturation at 15° C. using an Olis RSM 1000 spectrometer (Bogart, Ga.) that scans both the alpha band and Soret band absorptions 1,000 times a second, followed by SVD analysis of the kinetic components. The dissociation rate of the CO complex was determined by competition with ferricyanide using a range of ferricyanide concentrations according to the ferric heme trapping method described previously.
Preparations of ferrous heme synthetic proteins in CO saturated 30% ethylene glycol borate buffer at pH 9.0 were stable to ligand exchange on a timescale of several minutes in the dark at −15° C. This allowed spectra such as those shown in FIG. 2 to be prepared by re-equilibration with O2 or O2/CO gas mixtures, followed by photolysis by halogen lamp illumination for several seconds to initiate rapid O2 binding, as described previously.
In fact, none of the artificial hemes proteins examined above were able to bind this gas stably at room temperature. […] Constructs 2, 3, 4 and 5 all include the glutamate-based helical strain, which weakens the histidine ligation and allows competition from other ligands. By first exposing these heme proteins to CO and then illuminating at a low temperature to initiate ligand exchange for O2, as was done previously with cytochrome oxidase, each formed an oxy-ferrous heme at near 100% yield at −15° C. The probable reason for room temperature instability was the access of water and protons to the heme-binding site, which facilitates electron transfer from ferrous heme to oxygen. This is clear from mutant studies of globins and the relative stability of the oxy-ferrous heme in chemical systems in water-free solvents.

[3] = literature value, cited from earlier work
[4] = literature value, cited from earlier work; remark: listed apart in the source
[5] = Hydrogen isotope (H/D) exchange protection by NMR; assay type: physicochemical; settings: pH 7 and 25° C.
Description: To engineer water exclusion, the potentially culpable protein motion was constrained. […] Indeed, Construct 2 could be modified to introduce large-scale syn-anti flipping. To constrain motion, the loops were reconfigured to link the helices across the most mobile interface. This also allowed the loops to be linked into a monomeric “candelabra” structure, further constraining motion (Construct 6 in FIG. 1). NMR confirmed the water-restricting effects of loop reconfiguration and monomerization. Hydrogen isotope (H/D) analysis of hydrogen exchange protection factors of Constructs 4 and 6 at pH 7 and 25° C.

[6] = Potentiometric titration (oxidation-reduction midpoint potential); assay type: physicochemical
[7] = heme B, cited from earlier work
[8] = CO binding and release kinetics (stopped-flow mixing, flash photolysis, ferricyanide competition); settings: stopped-flow with CO
Experimental: as §1
CO rebinding after photolysis by a frequency-doubled YAG laser at 532 nm, with a ˜1-ns pulse width (FIG. 3C), was multi-exponential, a characteristic signature of human neuroglobins. Detailed analysis of time-resolved spectra in the flash experiments was consistent with a rapid exponential phase due to a change in pentacoordinate heme conformation (FIG. 3B), similar to that reported for myoglobin [46]. […]
Saturation of the observed CO binding rate allowed estimates of the opening and closing rates. […] Table 1 presents the kinetic constants (also shown in FIG. 3A) and equilibrium binding constants that have been determined for Construct 6 and contrasts them with several natural oxygen-binding proteins. […]

[9] = literature value; cited from earlier work
[10] = not in parentheses, read-out: KdO2
[11] = not in parentheses, read-out: KdCO

Which Kd ([1]; tighter site) does the source give for “CGGGEIWKQHEEALKKLFAFFFILPFIIMAIAMVFLLFLFGEGL [Construct 13]” here?
Its Kd is 50 to 200 nM.

What about the Kd ([1]; weaker site) of the same molecule?
Its Kd is 1000 to 4000 nM.

And the “O2 binding / oxy-ferrous heme formation (in words)” value [2]?
The value was “able to bind O2”.

For “Construct 5: cystine derivative of SEQ ID NO:9 (CGGGEIWKQHEDALQKFEDALNQFEELKQL; also: cystine derivative)”, which “stabilization of the oxy-ferrous heme” value [2] is on record?
The value was “not to be stabilized”.

What about the oxy-ferrous heme yield [2] of the same molecule?
The oxy-ferrous heme yield was roughly 100%.

What does the source list for “Construct 2: cystine derivative of SEQ ID NO:6 (CGGGELWKLHEELLKKFEELLKLHEERLKKL; also: cystine derivative)”?
O2 binding / oxy-ferrous heme formation (in words) [2]: proceeded directly and rapidly to the oxidized form; oxy-ferrous heme yield [2]: ~100%

Which kO2 off [3] does the source give for Human haemoglobin here?
Its kO2 off is 15 s⁻¹.

And the KdO2/KdCO ([3]; not in parentheses)?
Its KdO2/KdCO is 190.

What about the kO2 on ([3]; not in parentheses) of the same molecule?
Its kO2 on is 1.9e+07 M⁻¹ s⁻¹.

And the Kd [3, 10]?
The Kd was 770 nM.

And the kCO off [4]?
Its kCO off is 0.009 s⁻¹.

And the kCO on ([4]; not in parentheses)?
The kCO on was 2.2e+06 M⁻¹ s⁻¹.

And the Kd [4, 11]?
The Kd was 4 nM.

For Myoglobin, which kO2 off [3] is on record?
Its kO2 off is 12 s⁻¹.

What about the KdO2/KdCO ([3]; not in parentheses) of the same molecule?
The KdO2/KdCO was 23.

What about the kO2 on ([3]; not in parentheses) of the same molecule?
Its kO2 on is 1.4e+07 M⁻¹ s⁻¹.

What about the Kd [3, 10] of the same molecule?
The Kd was 860 nM.

And the kCO off [4]?
Its kCO off is 0.019 s⁻¹.

And the kCO on ([4]; not in parentheses)?
The kCO on was 500000 M⁻¹ s⁻¹.

What about the Kd [4, 11] of the same molecule?
The Kd was 37 nM.

What does the source list for Ascaris haemoglobin?
kO2 off [3]: 0.004 s⁻¹; KdO2/KdCO ([3]; not in parentheses): 0.03; kO2 on ([3]; not in parentheses): 1.5e+06 M⁻¹ s⁻¹; Kd [3, 10]: 3 nM; kCO off [4]: 0.018 s⁻¹; kCO on ([4]; not in parentheses): 200000 M⁻¹ s⁻¹; Kd [4, 11]: 90 nM

With Micro-peroxidase as the molecule, how does the kCO off [4] read?
Its kCO off is 0.01 s⁻¹.

And the kCO on ([4]; not in parentheses)?
The kCO on was 2e+07 M⁻¹ s⁻¹.

And the Kd [4, 11]?
The Kd was 0.5 nM.

Which oxy-ferrous heme yield [2] does the source give for “Construct 3: cystine derivative of SEQ ID NO:7 (CGGGEIWKLHEEFLKKFEELLKLHEERLKKL; also: cystine derivative)” here?
The oxy-ferrous heme yield was roughly 100%.

Which Kd ([1]; tighter site) does the source give for “CGGGEIWKQFEEALKKLFAFHFILPFIIMAIAMVFLLFLFGEGL [Construct 14, AP6 with histidines at positions 10 and 35 mutated to phenylalanine]” here?
Its Kd is 200 to 500 nM.

And the Kd ([1]; weaker site)?
Its Kd is 1000 to 3000 nM.

For “CGGGEIWKQFEEALKKLFAFFFILPFIIMAIAMVHLLFLFGEGL [Construct 15, AP6 with histidines at positions 10 and 21 mutated to phenylalanine]”, which Kd ([1]; tighter site) is on record?
Its Kd is 100 nM.

What about the Kd ([1]; weaker site) of the same molecule?
The Kd was 4500 nM.

What does the source list for “Construct 4: cystine derivative of SEQ ID NO:8 (CGGGEIWKQHEEALKKFEEALKQFEELKKL; also: cystine derivative)”?
oxy-ferrous heme yield [2]: ~100%; time to complete water-mediated proton exchange [5]: ≤ 15 min

B1: Construct 6: cystine derivative of SEQ ID NO:1; four-helix bundle oxygen transport protein (protein)
chain: GEIWKQHEDALQKFEEALNQFEDLKQLGGSGCGSGGEIWKQHEDALQKFEEALNQFEDLKQL
modifications: cystine derivative
notes: four-helix bundle oxygen transport protein
For B1, which “oxidation-reduction midpoint potential at pH 8 (Em8)” value ([6]; bound heme A, pH 8, versus normal hydrogen electrode (NHE)) is on record?
The value was −100 mV.

And the “Em8 of bound heme A more positive than heme B” value ([6]; heme A versus heme B)?
Its value is “about 200 mV”.

And the “O2 on-rate compared with human neuroglobin” value [2]?
Its value is roughly 100 times slower.

And the “net discrimination favoring O2 binding over CO binding” value [2]?
Its value is “tenfold”.

And the “stabilization of the oxy-ferrous heme” value [2]?
The value was “stabilized by looping together helices not linked by heme”.

And the “persistence of oxy-ferrous heme A before electron transfer” value ([2]; heme A)?
The value was “about half a minute”.

And the “duration of stability of the oxy-ferrous state” value ([2]; heme B, before electron transfer from ferrous heme to O2)?
Its value is “tens of seconds”.

And the “O2 binding / oxy-ferrous heme formation (in words)” value [2]?
The value was “transformation of the reduced heme to the oxy-ferrous state”.

What about the “timescale of exchange of core residue backbone amides” value [5] of the same molecule?
Its value is “several hours”.

And the Kd ([7]; first heme, read-out: dissociation constant (Kd) for binding of the first heme)?
Its Kd is less than 1 nM.

What about the Kd ([7]; second heme, read-out: dissociation constant (Kd) for binding of the second heme) of the same molecule?
Its Kd is 50 nM.

And the “half time of carboxy-ferrous heme formation” value [8]?
Its value is 400 ms.

What about the “stability of carboxy-ferrous heme species” value [8] of the same molecule?
Its value is “indefinitely stable”.

B2: Construct 7: SEQ ID NO:11; single chain four-helix bundle peptide (protein)
chain: GMTPEQIWKQHEDALQKFEDALNQFEELKQLGGSGSGSGGEIWKQHEDALQKFEDALNQFEELKQLGGSGGSGGSGGEIWKQHEDALQKFEDALNQFEELKQLGGSGSGSGGEIWKQHEDALQKFEDALNQFEELKQL
With B2 as the molecule, how does the “O2 binding / oxy-ferrous heme formation (in words)” value [2] read?
Its value is “retained the O2 binding functionality of Construct 6”.

B3: Construct 10: SEQ ID NO:14; single chain four-helix bundle with CXXCH insert, covalently bound heme C (protein)
chain: B2 chain with W43C, Q45C
modifications: covalently bound heme C
Which results are given for B3?
Em (midpoint potential) ([6]; covalently bound c-type heme, pH 9): −232 mV; O2 binding / oxy-ferrous heme formation (in words) [2]: bound molecular oxygen

B4: Neuroglobin (protein, UniProt Q9NPG2 1-151, looked up)
Neuroglobin: MERPEPELIRQSWRAVSRSPLEHGTVLFARLFALEPDLLPLFQYNCRQFSSPEDCLSSPEFLDHIRKVMLVIDAAVTNVEDLSSLEEYLASLGRKHRAVGVKLSSFSTVGESLLYMLEKCLGPAFTPATRAAWSQLYGAVVQAMSRGWDGE
Which results are given for B4?
kO2 off [3]: 0.8 s⁻¹; KdO2/KdCO (apparent) ([3]; in parentheses: apparent): (15); kO2 on (apparent) ([3]; in parentheses: apparent): (0.56) μM^−1s^−1; Kd ([3]; in parentheses: apparent, read-out: KdO2 (apparent)): 1400 nM; kO2 on ([3]; not in parentheses): 2.5e+08 M⁻¹ s⁻¹; Kd [3, 10]: 3.2 nM; kCO off [4]: 0.014 s⁻¹; kCO on (apparent) ([4]; in parentheses: apparent): (0.15) μM^−1s^−1; Kd ([4]; in parentheses: apparent, read-out: KdCO (apparent)): 93 nM; kCO on ([4]; not in parentheses): 6.5e+07 M⁻¹ s⁻¹; Kd [4, 11]: 0.21 nM; kHis off [9]: 4.5 s⁻¹; kHis on [9]: 2,000 s^−1
